Assays:
wheat, spring = assay: Test D pre-/postemergence herbicide test; type: in vivo, Triticum aestivum; conditions: for Plant response rating, Wheat, Spring: Preemergence, scale 0 to 100 (0 no effect, 100 complete control); for Plant response rating: Postemergence, Wheat, Spring, scale 0 to 100
Source text: (§1) Seeds of plant species selected from bluegrass (annual bluegrass, Poa annua), blackgrass (Alopecurus myosuroides), canarygrass (littleseed canarygrass, Phalaris minor), chickweed (common chickweed, Stellaria media), galium (catchweed bedstraw, Galium aparine), bromegrass, downy (downy bromegrass, Bromus tectorum), field poppy (Papaver rhoeas), field violet (Viola arvensis), foxtail, green (green foxtail, Setaria viridis), deadnettle (henbit deadnettle, Lamium amplexicaule), ryegrass, Italian (Italian ryegrass, Lolium multiflorum), kochia (Kochia scoparia), lambsquarters (Chenopodium album), oilseed rape (Brassica napus), pigweed (Amaranthus retroflexus), chamomile (scentless chamomile, Matricaria inodora), Russian thistle (Salsola kali), speedwell (bird's-eye speedwell, Veronica persica), barley, spring (spring barley, Hordeum vulgare), wheat, spring (spring wheat, Triticum aestivum), buckwheat, wild (wild buckwheat, Polygonum convolvulus), mustard, wild (wild mustard, Sinapis arvensis), oat, wild (wild oat, Avena fatua), radish, wild (wild radish, Raphanus raphanistrum), […]), barley, winter (winter barley, Hordeum vulgare), and wheat, winter (winter wheat, Triticum aestivum) were planted into a silt loam soil and treated preemergence with test chemicals formulated in a non-phytotoxic solvent mixture which included a surfactant. At the same time, these species were planted in pots containing Redi-Earth® planting medium (Scotts Company, 14111 Scottslawn Road, Marysville, Ohio 43041) comprising spaghnum peat moss, vermiculite, wetting agent and starter nutrients and treated with postemergence applications of the test chemicals formulated in the same manner. Plants ranged in height from 2 to 18 cm (1- to 4-leaf stage). Treated plants and controls were maintained in a controlled growth environment for 7 to 21 days after which time all species were compared to controls and visually evaluated. Plant response ratings, summarized in Table D, are based on a scale of 0 to 100 where 0 is no effect and 100 is complete control. A dash (-) response means no test result.

wheat, winter = assay: Test D pre-/postemergence herbicide test; type: in vivo, Triticum aestivum; conditions: for Plant response rating, Wheat, Winter: Preemergence, scale 0 to 100 (0 no effect, 100 complete control); for Plant response rating: Postemergence, Wheat, Winter, scale 0 to 100
Source text: as §1

rice, transplanted = assay: Test F flood (paddy) test; type: in vivo, Oryza sativa cv. Japonica—M202; conditions: 21 d, scale 0-100
Source text: Three plastic pots (ca. 16-cm diameter) per rate were partially filled with sterilized Tama silt loam soil comprising a 35:50:15 ratio of sand, silt and clay and 2.6% organic matter. Separate plantings for each of the three pots were as follows. Seeds from the U.S. of monochoria (Monochoria vaginalis), sedge, umbrella (small-flower umbrella sedge, Cyperus difformis), bulrush, […] bulrush, Scirpus juncoides), and […] (purple […] coccinea), were planted into one 16-cm pot for each rate. Seeds from the U.S. of flatsedge, rice (rice flatsedge, Cyperus iria), sprangletop, Brdd. (bearded sprangletop, Leptochloa fascicularis), one stand of 9 or 10 water seeded rice seedlings (Rice, W.S. Jap, Oryza sativa cv. 'Japonica-[…]' or Rice, W.S. Ind, 'Indica'), and two stands of 3 or 4 seedlings of rice, transplanted (transplanted rice, Oryza sativa cv. 'Japonica-[…]') were planted into one 16-cm pot for each rate. Seeds from the U.S. of barnyardgrass (Echinochloa crus-galli), […] (common […], Alisma plantago-aquatica), and watergrass, late (late watergrass, Echinochloa oryzicola) were planted into one 16-cm pot for each rate. Plantings were sequential so that crop and weed species were at the 2.0 to 2.5-leaf stage at time of treatment. Potted plants were grown in a greenhouse with day/night temperature settings of 30/27° C., and supplemental balanced lighting was provided to maintain a 16-h photoperiod. Test pots were maintained in the greenhouse until test completion. At time of treatment, test pots were flooded to 3 cm above the soil surface, treated by application of test compounds directly to the paddy water, and then maintained at that water depth for the duration of the test. Effects of treatments on rice and weeds were visually evaluated by comparison to untreated controls after 21 d. Plant response ratings, summarized in Table F, are based on a scale of 0 to 100 where 0 is no effect and 100 is complete control. A dash (-) response means no test result.

waterhemp = assay: Test E preemergence herbicide test; type: in vivo, Amaranthus rudis; set-up: key: 0 = no effect, 100 = complete control
Source text: (§2) Seeds of plant species selected from corn (Zea mays), soybean (Glycine max), velvetleaf (Abutilon theophrasti), lambsquarters (Chenopodium album), wild poinsettia (Euphorbia heterophylla), pigweed, palmer (palmer pigweed, Amaranthus palmeri), waterhemp (common waterhemp, Amaranthus rudis), surinam grass (Brachiaria decumbens), crabgrass, large (large crabgrass, Digitaria sanguinalis), crabgrass, Brazil (Brazilian crabgrass, Digitaria horizontalis), panicum, fall (fall panicum, Panicum dichotomiflorum), foxtail, giant (giant foxtail, Setaria faberii), foxtail, green (green foxtail, Setaria viridis), goosegrass (Eleusine indica), johnsongrass (Sorghum halepense), ragweed (common ragweed, Ambrosia elatior), barnyardgrass (Echinochloa crus-galli), sandbur (southern sandbur, Cenchrus echinatus), arrowleaf […] rhombifolia), ryegrass, Italian (Italian ryegrass, Lolium multiflorum), dayflower, VA (Virginia dayflower, Commelina virginica), field bindweed (Convolvulus arvensis), morningglory (Ipomoea coccinea), nightshade (eastern black nightshade, Solanum ptycanthum), kochia (Kochia scoparia), nutsedge, yellow (yellow nutsedge, Cyperus esculentus), cocklebur (common cocklebur, Xanthium strumarium), smartweed (ladysthumb smartweed, Polygonum Persicaria) and beggarticks (hairy beggarticks, Bidens pilosa), were planted into a silt loam soil and treated preemergence with test chemicals formulated in a non-phytotoxic solvent mixture which included a surfactant. Treated plants and controls were maintained in a greenhouse for 21 days, after which time all species were compared to controls and visually evaluated. Plant response ratings, summarized in Table E, are based on a scale of 0 to 100 where 0 is no effect and 100 is complete control. A dash (-) response means no test result.

arrowleaf sida = assay: Test E preemergence herbicide test; type: in vivo, Sida rhombifolia; set-up: key: 0 = no effect, 100 = complete control
Source text: as §2

beggarticks = assay: Test E preemergence herbicide test; type: in vivo, Bidens pilosa; set-up: key: 0 = no effect, 100 = complete control
Source text: as §2

`O=C1NCC(c2cccc(C(F)(F)F)c2)C1C(=O)Nc1cccc(F)c1F` (stereo not drawn) [Compound 241] was tested, and the “Plant response rating, Wheat, Spring” value (wheat, spring; 31 g ai/ha) was 0, the “Plant response rating, Wheat, Spring” value (wheat, spring; 62 g ai/ha) was 0 and the “Plant response rating, Wheat, Spring” value (wheat, spring; 125 g ai/ha) was 25. The “Plant response rating, Wheat, Spring” value (wheat, spring; 250 g ai/ha) was 40, the “Plant response rating, Wheat, Winter” value (wheat, winter; 31 g ai/ha) was 0 and the “Plant response rating, Wheat, Winter” value (wheat, winter; 62 g ai/ha) was 5. For the same compound, the “Plant response rating, Wheat, Winter” value (wheat, winter; 125 g ai/ha) was 10 and the “Plant response rating, Wheat, Winter” value (wheat, winter; 250 g ai/ha) was 25.
For `O=C1NCC(c2ccc(C(F)(F)F)c(F)c2)C1C(=O)Nc1cccc(F)c1F` (racemic) [Compound 247], the “Plant response rating, Rice, Transplanted” value (from here on “Plant response rating, Rice”) (rice, transplanted; 125 g ai/ha) was 0, the “Plant response rating, Rice” value (rice, transplanted; 250 g ai/ha) was 0 and the “Plant response rating, Rice” value (rice, transplanted; 500 g ai/ha) was 0. For the same compound, the “Plant response rating, Rice” value (rice, transplanted; 1000 g ai/ha) was 10 and the “Plant response rating, Rice” value (rice, transplanted; 2000 g ai/ha) was 15.
For `O=C1NCC(c2cccc(C(F)(F)F)c2)C1C(=O)Nc1ccc(F)cc1F` (racemic) [Compound 207], the “Plant response rating, Wheat, Spring” value (wheat, spring; 31 g ai/ha) was 5, the “Plant response rating, Wheat, Spring” value (wheat, spring; 62 g ai/ha) was 10 and the “Plant response rating, Wheat, Spring” value (wheat, spring; 125 g ai/ha) was 10. The “Plant response rating, Wheat, Spring” value (wheat, spring; 250 g ai/ha) was 10, the “Plant response rating, Wheat, Winter” value (wheat, winter; 31 g ai/ha) was 0 and the “Plant response rating, Wheat, Winter” value (wheat, winter; 62 g ai/ha) was 15. For the same compound, the “Plant response rating, Wheat, Winter” value (wheat, winter; 125 g ai/ha) was 10, the “Plant response rating, Wheat, Winter” value (wheat, winter; 250 g ai/ha) was 20 and the “Plant response rating, Rice” value (rice, transplanted; 125 g ai/ha) was 0. For the same compound, the “Plant response rating, Rice” value (rice, transplanted; 250 g ai/ha) was 0 and the “Plant response rating, Rice” value (rice, transplanted; 500 g ai/ha) was 0.
`O=C1NCC(c2cc(F)c(F)c(F)c2)C1C(=O)Nc1ccccc1F` (racemic) [Compound 34] gave a Plant response rating (wheat, spring; 16 g ai/ha) of 0, a Plant response rating (wheat, spring; 31 g ai/ha) of 0 and a Plant response rating (wheat, spring; 62 g ai/ha) of 0. It also gave a Plant response rating (wheat, spring; 125 g ai/ha) of 0, a Plant response rating (wheat, spring; 250 g ai/ha) of 0 and a Plant response rating (wheat, winter; 16 g ai/ha) of 0. The Plant response rating (wheat, winter; 31 g ai/ha) was 0, the Plant response rating (wheat, winter; 62 g ai/ha) was 0 and the Plant response rating (wheat, winter; 125 g ai/ha) was 0. It also gave a Plant response rating (wheat, winter; 250 g ai/ha) of 0.
`O=C1NCC(c2cccc(Br)c2)C1C(=O)Nc1ccccc1F` (stereo not drawn) [Compound 66] was tested, and the “Plant response rating, Waterhemp” value (waterhemp; 16 g ai/ha) was 0, the “Plant response rating, Waterhemp” value (waterhemp; 31 g ai/ha) was 0 and the “Plant response rating, Waterhemp” value (waterhemp; 62 g ai/ha) was 0. The “Plant response rating, Waterhemp” value (waterhemp; 125 g ai/ha) was 0, the “Plant response rating, Waterhemp” value (waterhemp; 250 g ai/ha) was 0 and the “Plant response rating, Arrowleaf Sida” value (arrowleaf sida; 16 g ai/ha) was 0. The “Plant response rating, Arrowleaf Sida” value (arrowleaf sida; 31 g ai/ha) was 0, the “Plant response rating, Arrowleaf Sida” value (arrowleaf sida; 62 g ai/ha) was 0 and the “Plant response rating, Arrowleaf Sida” value (arrowleaf sida; 125 g ai/ha) was 0. For the same compound, the “Plant response rating, Arrowleaf Sida” value (arrowleaf sida; 250 g ai/ha) was 0, the “Plant response rating, Beggarticks” value (beggarticks; 16 g ai/ha) was 0 and the “Plant response rating, Beggarticks” value (beggarticks; 31 g ai/ha) was 0. For the same compound, the “Plant response rating, Beggarticks” value (beggarticks; 62 g ai/ha) was 0, the “Plant response rating, Beggarticks” value (beggarticks; 125 g ai/ha) was 0 and the “Plant response rating, Beggarticks” value (beggarticks; 250 g ai/ha) was 0.
`O=C1NCC(c2cccc(C(F)(F)F)c2)C1C(=O)Nc1ccccc1F` (racemic) [Compound 3] was tested, and the “Plant response rating, Rice” value (rice, transplanted; 250 g ai/ha) was 0 and the “Plant response rating, Rice” value (rice, transplanted; 500 g ai/ha) was 0.

— patent publication US10294202B2, “Pyrrolidinones as herbicides” (FMC Corporation, priority 2013, dated 2019)
